pIC50: −log10 of the molar value. Calls of active or inactive are those of the source. The rule behind the calls is not given here.
Legend:
[1] = biological target: T1, Prostaglandin E2 receptor EP1 subtype (Rattus norvegicus, UniProt P70597); assay: (§1) Antagonist activity at rat His-tagged EP1 receptor expressed in African green monkey COS1 cells assessed as reduction in PGE2-induced increase in intracellular calcium level preincubated for 60 secs followed by PGE2 addition measured for 60 secs by Fluo 4-AM dye-based fluorescence assay; assay type: functional, cell-based
T1 sequence (P70597 whole entry): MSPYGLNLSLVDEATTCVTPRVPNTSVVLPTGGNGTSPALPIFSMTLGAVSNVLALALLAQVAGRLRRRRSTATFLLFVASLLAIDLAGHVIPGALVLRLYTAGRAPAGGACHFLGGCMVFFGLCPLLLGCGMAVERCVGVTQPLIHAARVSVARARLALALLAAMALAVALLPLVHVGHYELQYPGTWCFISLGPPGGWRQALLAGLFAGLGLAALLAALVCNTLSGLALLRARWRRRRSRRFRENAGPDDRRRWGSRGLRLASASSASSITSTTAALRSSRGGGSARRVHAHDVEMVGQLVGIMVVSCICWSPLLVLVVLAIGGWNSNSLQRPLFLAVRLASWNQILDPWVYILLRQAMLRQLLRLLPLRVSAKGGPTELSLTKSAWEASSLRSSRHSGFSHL

[2] = Initial plasma concentration in rat at 1 mg/kg, iv; assay type: ADME, organism-based
[3] = test system: Rattus norvegicus; assay: Suppression of 17-PTP-induced bladder contraction in Wistar rat assessed as change in intravesical pressure at 1 mg/kg, iv pretreated for 5 mins followed by 17-PTP administration for 9 times with 30 mins time interval up to 245 mins post dose; assay type: functional, organism-based
[4] = Volume of distribution at steady state in rat at 1 mg/kg, iv; assay type: ADME, organism-based; settings: in vivo, read-out: Vdss
[5] = Total clearance in rat at 1 mg/kg, iv; assay type: ADME, organism-based; settings: in vivo
[6] = AUC (0 to infinity) in rat at 1 mg/kg, iv; assay type: ADME, organism-based; set-up: dose 1 mg/kg, time infinity, route intravenous; settings: in vivo
[7] = Aqueous solubility of compound; assay type: physicochemical; settings: buffer
[8] = biological target: T2, Prostaglandin E2 receptor EP1 subtype (Rattus norvegicus) (UniProt P70597); assay: as §1, with “level at 10 uM” for “level”, “assay relative to control” for “assay”; assay type: functional, cell-based
T2 sequence (whole entry): T1 sequence (P70597 whole entry)

| pIC50 [1] | Compound | further results |
| --- | --- | --- |
| 6.13 | O=C(O)c1cccc(Cc2c(N3CCOCC3)nn3cc(Cl)ccc23)n1 | – |
| – | O=C(O)c1cccc(Cc2c(-c3ccccc3)nn3cc(Cl)ccc23)n1 | C0 [2]: 2750 ng/mL; Activity [3]: Active; Vd [4]: 0.489 L/kg; clearance [5]: 10.7 mL/min/kg; AUC(0-inf) [6]: 1590 ng·h/mL |
| 5.27 | COc1ccc(-c2nn3cc(Cl)ccc3c2Cc2cccc(C(=O)O)n2)cc1 | – |
| 6.10 | COc1cccc(-c2nn3cc(Cl)ccc3c2Cc2cccc(C(=O)O)n2)c1 | – |
| 7.80 | O=C(O)c1cccc(Cc2c(-c3ccccc3)nn3cc(C(F)(F)F)ccc23)n1 | C0 [2]: 2430 ng/mL; Activity [3]: Active; Vd [4]: 0.473 L/kg; clearance [5]: 3.84 mL/min/kg; AUC(0-inf) [6]: 4360 ng·h/mL |
| – | Cc1cc(C(=O)O)nn1Cc1cc(Cl)cc2cc(-c3ccccc3)nn12 | solubility [7]: > 75 µM |
| 6.89 | O=C(O)c1cccc(Cc2c(-c3ccoc3)nn3cc(Cl)ccc23)n1 | – |
| – | COc1cccc2c(Cc3cccc(C(=O)O)n3)c(-c3ccccc3)nn12 | inhibition [8]: 33% |
| 5.82 | O=C(O)c1cccc(Cc2c(C3CC3)nn3cc(Cl)ccc23)n1 | – |
| – | COc1ccc2c(Cc3cccc(C(=O)O)n3)c(-c3ccccc3)nn2c1 | C0 [2]: 2660 ng/mL; Activity [3]: Active; Vd [4]: 0.45 L/kg; clearance [5]: 6.12 mL/min/kg; AUC(0-inf) [6]: 2780 ng·h/mL; solubility [7]: > 75 µM |
| 6.59 | O=C(O)c1cccc(Cc2c(N3CCSCC3)nn3cc(Cl)ccc23)n1 | – |
| 5.92 | O=C(O)c1cccc(Cc2c(C3CCCCC3)nn3cc(Cl)ccc23)n1 | – |
| 5.96 | O=C(O)c1cccc(Cc2c(-c3cccs3)nn3cc(Cl)ccc23)n1 | – |
| 6.96 | O=C(O)c1cccc(Cc2c(-c3ccsc3)nn3cc(Cl)ccc23)n1 | – |
| 6.19 | O=C(O)c1cccc(Cc2c(-c3ccccc3Cl)nn3cc(Cl)ccc23)n1 | – |
| 5.27 | CS(=O)(=O)c1ccc2c(Cc3cccc(C(=O)O)n3)c(-c3ccccc3)nn2c1 | – |

| pIC50 [1] | Compound | further results |
| --- | --- | --- |
| 6.72 | O=C(O)c1cccc(Cc2c(-c3ccccc3)nn3cc(C4CC4)ccc23)n1 | – |
| 5.96 | O=C(O)c1cccc(Cc2c(-c3ccc(Cl)cc3)nn3cc(Cl)ccc23)n1 | – |
| 6.36 | N#Cc1ccc2c(Cc3cccc(C(=O)O)n3)c(-c3ccccc3)nn2c1 | – |
| 6.70 | CC(C)Cc1nn2cc(Cl)ccc2c1Cc1cccc(C(=O)O)n1 | – |
| 5.74 | O=C(O)c1cccc(Cc2c(N3CCCC3)nn3cc(Cl)ccc23)n1 | – |
| 5.64 | O=C(O)c1cccc(Cc2c(-c3ccccc3)nn3ccccc23)n1 | – |
| 6.32 | O=C(O)c1cccc(Cc2c(-c3cccc(Cl)c3)nn3cc(Cl)ccc23)n1 | – |
| – | COc1ccccc1-c1nn2cc(Cl)ccc2c1Cc1cccc(C(=O)O)n1 | inhibition [8]: 29% |
| 5.35 | COc1ccc2c(Cc3cncc(C(=O)O)n3)c(-c3ccccc3)nn2c1 | – |
| 6.42 | O=C(O)c1cccc(Cc2c(-c3ccccc3)nn3cc(F)ccc23)n1 | – |
| 5.04 | COc1ccn2nc(-c3ccccc3)c(Cc3cccc(C(=O)O)n3)c2c1 | – |
| 5.85 | O=C(O)c1cccc(Cc2c(N3CCCCCC3)nn3cc(Cl)ccc23)n1 | – |
| 5.96 | CC(=O)c1ccc2c(Cc3cccc(C(=O)O)n3)c(-c3ccccc3)nn2c1 | – |
| 5.92 | O=C(O)c1cccc(Cc2c(-c3ccco3)nn3cc(Cl)ccc23)n1 | – |
| 6.54 | C=C(C)c1ccc2c(Cc3cccc(C(=O)O)n3)c(-c3ccccc3)nn2c1 | – |
